Test results from PMC7599001, “The SNAP-tag technology revised: an effective chemo-enzymatic approach by using a universal azide-based substrate” (Journal of Enzyme Inhibition and Medicinal Chemistry, 2020).
Read-outs that look alike come from different tables or passages of the source.

What was measured:
SsOGT-H^5 [1] = target: T1, SsOGT-H^5 (Saccharolobus solfataricus, UniProt Q97VW7, G105K/K110E/M106T/R102A/S100A/S132E); test: AGTs' substrate assay by competitive inhibition method with SVG (gel-imaging); assay type: biochemical
T1 construct: His6-tag; made in house; host or cells: E. coli ABLE C
Procedure: Competitive inhibition assay was performed as described[23]^,[38]. Briefly, by using a fixed concentration of the fluorescent SVG (5 µM) and enzymes (5 µM), an increasing amount of guanine-derivatives (0–2 mM) was added to the mixtures. […] Subsequently, fluorescent bands were measured by gel-imaging on a VersaDoc 4000™ system (Bio-Rad), by applying a blue LED/530 bandpass filter. Obtained data were finally plotted by Equation (1), (1) RF=100%/1+([I]/IC50)^[S] where RF is the obtained Relative Fluorescence, [I] and [S] are the concentration of the inhibitor and the substrate, respectively, and finally the IC50 is the concentration needed to reduce by 50% the fluorescence intensity of the protein band.
(§1) We evaluated the activity of SNAP-tag® and H^5 enzymes on BGN3 and BGSN3 by the afore-mentioned IC50 method (Figure S5(A,B)) and other O^6-guanine-derivatives (Table 1).
(§2) Because most of them are non-fluorescent compounds, we performed an AGTs’ competitive inhibition assay by using the fluorescein-derivative SNAP-Vista® Green as substrate (SVG), as previously described[22–24]^,[45]. Briefly, the reaction of an AGT with SVG led to a fluoresceinated protein, which can be visualised as a fluorescent band in gel-imaging analysis after SDS-PAGE. The presence of increasing amounts of a non-fluorescent competitor in the reaction causes a decrease of the fluorescent signals, which can be measured and plotted for the IC50 values determination[23]^,[46].

SNAP-tag® [2] = target: T2, SNAP-tag® (Homo sapiens, UniProt P16455, A127T/C150S/C62A/G131K/G132T/K125A/M134L/N157G/R128A/R135S/S159E); test: as above; assay type: biochemical; conditions: for IC50: SVG 5 µM, enzyme 5 µM, 30 min at 25 °C
T2 sequence (P16455 1-182 C62A/K125A/A127T/R128A/G131K/G132T/M134L/R135S/C150S/N157G/S159E): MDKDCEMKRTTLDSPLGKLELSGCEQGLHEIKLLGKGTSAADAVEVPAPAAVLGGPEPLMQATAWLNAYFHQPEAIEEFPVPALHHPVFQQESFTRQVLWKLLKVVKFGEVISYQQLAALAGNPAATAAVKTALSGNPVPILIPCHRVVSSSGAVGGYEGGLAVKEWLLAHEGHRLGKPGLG
Procedure: Competitive inhibition assay was performed as described[23]^,[38]. Briefly, by using a fixed concentration of the fluorescent SVG (5 µM) and enzymes (5 µM), an increasing amount of guanine-derivatives (0–2 mM) was added to the mixtures. The reactions were incubated for 30 min at 25 °C and 50 °C for SNAP-tag® and H^5 respectively, and loaded on SDS-PAGE. Subsequently, fluorescent bands were measured by gel-imaging on a VersaDoc 4000™ system (Bio-Rad), by applying a blue LED/530 bandpass filter. Obtained data were finally plotted by Equation (1), (1) RF=100%/1+([I]/IC50)^[S] where RF is the obtained Relative Fluorescence, [I] and [S] are the concentration of the inhibitor and the substrate, respectively, and finally the IC50 is the concentration needed to reduce by 50% the fluorescence intensity of the protein band.
as §1, §2

SNAP-tag® [3] = target: T2, SNAP-tag®; parameters: method as in PMID 18291317, PMID 26499124; conditions: 25 °C; obtained by using a BG-fluorescein substrate (BG-FL) very similar to SVG; cited from earlier work
SsOGT-H^5 [4] = target: T1, SsOGT-H^5; conditions: cited from earlier work
[5] = tested on: HEK293T cells transfected with SNAP-tag® plasmid; test: Permeability of eukaryotic cells to BGSN3 (lysates then incubated with SVG, gel-imaging); assay type: cell-based
Procedure: HEK293T cells were maintained at 37 °C with 5% CO2 in Dulbecco’s Modified Essential Medium (Invitrogen, Carlsbad, CA) supplemented with 10% Foetal Bovine Serum (FBS) (Invitrogen) and 100 U/ml Penicillin/Streptomycin (Roche, Switzerland). HEK293T cells were transfected with SNAP-tag® plasmid by using Lipofectamine 2000 (Invitrogen) following manufacturer’s protocol. The treatment with BGSN3 were performed, at the concentration and time indicated for each experiment. Twenty-four hours after transfection, we treated cells with BGSN3 for 2 h at different concentrations ranging (from 1 to 25 µM), directly dissolving the compound in complete culture medium. Then cells were harvested, washed with PBS 1× buffer and lysed with 50 mM Tris-HCl pH 7.4, 150 mM NaCl, 0.5 mM EDTA, 0.1% Triton X-100 supplemented with complete protease (Roche, Switzerland) and phosphatase (SERVA Electrophoresis, Germany) inhibitors. Afterwards, transfected cells were treated with a fixed concentration of BGSN3 (10 µM) at different time points (from 30 to 120 min). Again, HEK293T cells were washed and lysed as described before. […] Subsequently, proteins were loaded on SDS-PAGE and analysed by gel-imaging on a VersaDoc 4000™ system (Bio-Rad), by applying a blue LED/530 bandpass filter (Figure 6).

[6] = SVG 5 µM, enzyme 5 µM, 30 min at 50 °C, read-out: IC50

T1 sequence (Q97VW7 whole entry S100A/R102A/G105K/M106T/K110E/S132E): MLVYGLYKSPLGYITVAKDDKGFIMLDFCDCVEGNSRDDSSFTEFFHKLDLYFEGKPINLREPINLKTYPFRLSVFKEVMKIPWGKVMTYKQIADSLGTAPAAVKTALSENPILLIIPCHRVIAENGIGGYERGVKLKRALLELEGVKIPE

Compound | IC50 (SsOGT-H^5 [1]; [6]) [µM] | IC50 (SNAP-tag® [2]) [µM] | further results
Nc1nc(OCc2ccccc2)c2nc[nH]c2n1 [BG, O^6-benzyl-guanine] | 10.1 ± 1 |  | 
SNAP Cell^® Block [SCB] | 4.4 ± 0.8 | 2.1 ± 0.5 | 
SNAP-Vista^® Green [SVG] |  |  | k (second order rate constant of the enzymatic reaction) (SNAP-tag® [3]): 2.8 × 10^4 b s^−1 M^−1; k (second order rate constant of the enzymatic reaction) (SsOGT-H^5 [4]): 16000 M⁻¹ s⁻¹
[N-]=[N+]=NCCCC(=O)NCc1ccc(COc2nc(N)nc3[nH]cnc23)cc1 [BGSN3, N-(4-(((2-amino-9H-purin-6-yl)oxy)methyl)benzyl)-4-azidobutanamide] |  | 17.8 ± 1.1 | IC50 (SsOGT-H^5 [1]): 10 ± 0.7 µM; concentration for internalisation (absence of SVG signal) ([5]; 2 h treatment in culture medium): < 5 µM; time of internalisation ([5]; BGSN3 10 µM in culture medium): ca. 30 min
methyl-guanine-PEG-NH2 [MGPA] |  |  | IC50 (SsOGT-H^5 [1]; competitive assay for H^5 performed at 65 °C, read-out: IC50): 269 ± 19.1 µM
SNAP Cell^® 430 [SC430] |  |  | competition with SVG (SNAP-tag® [2]; competitive inhibition assay): completely lost the competition with SVG; competition with SVG (SsOGT-H^5 [1]; competitive inhibition assay): completely lost the competition with SVG
BG-PEG-NH2 [BGPA] | 14.3 ± 1.9 | 86 ± 6.7 | 
[N-]=[N+]=NCc1ccc(COc2nc(N)nc3nc[nH]c23)cc1 [BGN3, O^6-BG-N3] | 23.5 ± 1 | 15.6 ± 0.3 | 
